# Measured values: patent US9172221B2, “Converter building” (ABB Technology AG, priority 2011, dated 2015)
# Columns and labels:
# [1] = in vivo
# [2] = toxicity / lethal concentration LC50
SMILES,toxicity (in words) [1],LC50 ([2]; in vivo),risk for human toxicity ([2]; concluded from available results of mammalian HFC (hydrofluorocarbon) tests)
"O=C(C(F)(F)F)C(F)(C(F)(F)F)C(F)(F)F [C5-ketone, 1,1,1,3,4,4,4-heptafluoro-3-(trifluoromethyl)butan-2-one]",practically non-toxic,–,–
"O=C(C(F)(F)C(F)(F)F)C(F)(C(F)(F)F)C(F)(F)F [C6-ketone, 1,1,1,2,4,4,5,5,5-Nonafluoro-2-(trifluoromethyl)pentan-3-one]",non-toxic,"about 100,000 ppm",–
"FC(F)(F)COC(F)(F)F [2,2,2-trifluoroethyl-trifluoromethyl ether]",–,–,low risk for human toxicity
